Publication PMC12118337, “Development of a Peptide Inhibitor Targeting the C‐SH2 Domain of the SHP2 Phosphatase” (Chembiochem, 2025)
Non-standard residues stand in square brackets, D forms with d. Residues, ends and D or L forms follow the SMILES beside them. *: point of attachment. 5FAM = O=C1OC2(c3ccc(O)cc3Oc3cc(O)ccc32)c2ccc(C(=O)*)cc21; F2Pmp = N[C@@H](Cc1ccc(C(F)(F)P(=O)(O)O)cc1)C(=O)O; Pmp = N[C@@H](Cc1ccc(CP(=O)(O)O)cc1)C(=O)O; pY = N[C@@H](Cc1ccc(OP(=O)(O)O)cc1)C(=O)O; X1 = O=C(O)C(C(=O)O)*

How the values were obtained:
[1] = target: T1, SHP2 N‐SH2 domain (Homo sapiens, UniProt Q06124); test: Fluorescence polarization (FP) binding assay, SHP2 N-SH2 domain; settings: 100 nM FAM-labelled peptide; for Kd: increasing N-SH2 protein, 50 mM HEPES pH 7.5, 150 mM NaCl, 1 mM EDTA, 0.05% Tween 20, FP at 10 min, three independent experiments in technical triplicates, read-out: K D ± SEM, N‐SH2 (FP)
T1 construct: SHP2 N-SH2 domain (1–105), C-SH2 domain (106–220), PTP domain (224–541) and; His6 (pETM22 vector) (N, cleaved yes); made in house; host or cells: E. coli BL21(DE3)
T1 sequence (Q06124 1-105): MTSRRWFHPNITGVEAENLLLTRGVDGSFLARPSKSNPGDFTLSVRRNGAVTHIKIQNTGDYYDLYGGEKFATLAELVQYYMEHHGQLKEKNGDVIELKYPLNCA
Method: (§1) buffer and stored in 5 mL binding buffer at 4°C. His-tagged 3C protease (0.5 mg; EMBL) was added to the pooled eluted fractions and dialysed using Spectra Por Dialysis Tubing (MWCO 6-8 kDa, 23 mm; Spectrum Labs) in 1 L of binding buffer at 4°C for 3 hours, then overnight in fresh buffer. A new column was prepared by loading 2 mL Ni-NTA Agarose (Invitrogen) as a 50% slurry in EtOH. The column was washed with 10 mL H2O to remove the EtOH and equilibrated with 10 mL binding buffer. The protein/3C protease mixture was loaded onto the column and incubated for 1 hour at 4°C on a rocker. The flow through containing the protein was collected, the column was washed with 100 mL binding buffer and the 3C protease was eluted with 5 mL elution buffer. Protein purification was monitored by SDS-PAGE using NuPAGE 4-12% Bis-Tris Protein Gels (Invitrogen) run in MOPS buffer (50 mM MOPS, 50 mM Tris-HCl pH 7.7, 1 mM EDTA, 0.1% SDS) followed by Coomassie staining using Coomassie Brilliant Blue (Roth). The purified protein was dialysed into the final storage buffer (50 mM HEPES pH 7.5, 150 mM NaCl, 2 mM DTT, 20% glycerol). Aliquots were prepared and stored at -80°C until required. […]
(§2) 4. Fluorescence polarization
(§3) Fluorescence polarization (FP) was used to measure the binding of FAM-labelled peptides to the SHP2 C-SH2, SHP2 N-SH2, SHP2 PTP, CSK SH2 or Src SH2 domains. Each peptide was added to increasing concentrations of SHP2 C-SH2, SHP2 N-SH2, SHP2 PTP, CSK SH2 or Src SH2 protein in FP buffer (50 mM HEPES pH 7.5, 150 mM NaCl, 1 mM EDTA, 0.05% Tween 20) to give a final peptide […]
(§4) concentration of 100 nM in a final volume of 200 µL. For baseline subtraction, each peptide was added to FP buffer, instead of protein, with a final peptide concentration of 100 nM in a final volume of 200 µL. Samples were mixed gently then 3 x 60 µL of each sample was transferred into triplicate wells in a 96-well plate (OptiPlate-96 F Black; PerkinElmer). The FP was immediately measured on a Synergy H1 Microplate Reader (BioTek) with the excitation and emission monitored at 485 nm and 528 nm, respectively, over 30 minutes. FP values were automatically calculated by the Gen5 3.03 (BioTek) software associated with the microplate reader. Data were analysed in Excel 2016 by subtracting baseline values from FP values at 10 minutes. Data were then further analysed in GraphPad Prism 6 by plotting the baseline subtracted FP values against the protein concentration and fitting the data to a variable slope model of non-linear regression to obtain the KD values. Data are from three independent experiments, each performed in technical triplicates.
(§5) 5. Isothermal titration calorimetry […]
(§6) Analysis Software (Malvern Panalytical). For the data analysis, a 1:1 binding stoichiometry between the Ac-ITSM(pTyr) and SH2 domain was assumed. ITC measurements were performed once.

[2] = target: T2, SHP2 C‐SH2 domain (Homo sapiens, UniProt Q06124); test: Fluorescence polarization (FP) binding assay, SHP2 C-SH2 domain; settings: 100 nM FAM-labelled peptide; for Kd: read-out: K D ± SEM, C‐SH2 (FP)
T2 construct: SHP2 N-SH2 domain (1–105), C-SH2 domain (106–220), PTP domain (224–541) and; His6 (pETM22 vector) (N, cleaved yes); made in house; host or cells: E. coli BL21(DE3)
T2 sequence (Q06124 106-220): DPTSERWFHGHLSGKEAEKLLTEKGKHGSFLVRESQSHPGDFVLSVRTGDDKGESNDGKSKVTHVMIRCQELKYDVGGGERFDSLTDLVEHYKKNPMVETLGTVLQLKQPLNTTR
Method: as §1, §2, §3, §4, §5, §6

[3] = increasing C-SH2 protein, 50 mM HEPES pH 7.5, 150 mM NaCl, 1 mM EDTA, 0.05% Tween 20, FP at 10 min, three independent experiments in technical triplicates

Compound | binding to the N‐SH2 domain, in words [1] | Kd [1] | binding to the C‐SH2 domain, in words [2] | Kd [2, 3] | K D ± SEM, C‐SH2 (FP) [2, 3]
CC[C@H](C)[C@H](NC(=O)[C@@H](NC(=O)[C@H](C)NC(=O)[C@H](Cc1ccc(C(F)(F)P(=O)(O)O)cc1)NC(=O)[C@H](CCC(=O)O)NC(=O)[C@@H](NC(=O)[C@H](CCC(N)=O)NC(=O)[C@H](CCC(=O)O)NC(=O)c1ccc2c(c1)C(=O)OC21c2ccc(O)cc2Oc2cc(O)ccc21)[C@@H](C)O)[C@@H](C)O)C(=O)N[C@H](C(=O)N[C@@H](Cc1ccccc1)C(=O)N1CCC[C@H]1C(N)=O)C(C)C [FAM‐ITSM(F2Pmp)] (5FAM-EQTE[F2Pmp]ATIVFP-NH2) | slightly better binding than FAM‐ITSM(L‐OMT) | 1390 ± 63 nM | marked decrease in binding affinity | > 2000 nM | 
CC[C@H](C)[C@H](NC(=O)[C@@H](NC(=O)[C@H](C)NC(=O)[C@H](Cc1ccc(OC(C(=O)O)C(=O)O)cc1)NC(=O)[C@H](CCC(=O)O)NC(=O)[C@@H](NC(=O)[C@H](CCC(N)=O)NC(=O)[C@H](CCC(=O)O)NC(=O)c1ccc2c(c1)C(=O)OC21c2ccc(O)cc2Oc2cc(O)ccc21)[C@@H](C)O)[C@@H](C)O)C(=O)N[C@H](C(=O)N[C@@H](Cc1ccccc1)C(=O)N1CCC[C@H]1C(N)=O)C(C)C [FAM‐ITSM(L‐OMT)] (5FAM-EQTEY(X1)ATIVFP-NH2) |  | 1710 ± 105 nM | retained binding | 257 ± 8.3 nM | 
CC[C@H](C)[C@H](NC(=O)[C@@H](NC(=O)[C@H](C)NC(=O)[C@H](Cc1ccc(CP(=O)(O)O)cc1)NC(=O)[C@H](CCC(=O)O)NC(=O)[C@@H](NC(=O)[C@H](CCC(N)=O)NC(=O)[C@H](CCC(=O)O)NC(=O)c1ccc2c(c1)C(=O)OC21c2ccc(O)cc2Oc2cc(O)ccc21)[C@@H](C)O)[C@@H](C)O)C(=O)N[C@H](C(=O)N[C@@H](Cc1ccccc1)C(=O)N1CCC[C@H]1C(N)=O)C(C)C [FAM‐ITSM(Pmp)] (5FAM-EQTE[Pmp]ATIVFP-NH2) | greatly reduced binding | > 10000 nM | marked decrease in binding affinity | > 2000 nM | 
CC[C@H](C)[C@H](NC(=O)[C@@H](NC(=O)[C@H](C)NC(=O)[C@H](Cc1ccc(OP(=O)(O)O)cc1)NC(=O)[C@H](CCC(=O)O)NC(=O)[C@@H](NC(=O)[C@H](CCC(N)=O)NC(=O)[C@H](CCC(=O)O)NC(=O)c1ccc2c(c1)C(=O)OC21c2ccc(O)cc2Oc2cc(O)ccc21)[C@@H](C)O)[C@@H](C)O)C(=O)N[C@H](C(=O)N[C@@H](Cc1ccccc1)C(=O)N1CCC[C@H]1C(N)=O)C(C)C [FAM‐ITSM(pTyr), reference compound] (5FAM-EQTE[pY]ATIVFP-NH2) |  | 164 ± 19.5 nM |  | 48.9 nM | 
CC[C@H](C)[C@H](NC(=O)[C@@H](NC(=O)[C@H](C)NC(=O)[C@H](Cc1ccc(OP(=O)(O)O)cc1)NC(=O)[C@H](C)NC(=O)[C@@H](NC(=O)[C@H](CCC(N)=O)NC(=O)[C@H](CCC(=O)O)NC(=O)c1ccc2c(c1)C(=O)OC21c2ccc(O)cc2Oc2cc(O)ccc21)[C@@H](C)O)[C@@H](C)O)C(=O)N[C@H](C(=O)N[C@@H](Cc1ccccc1)C(=O)N1CCC[C@H]1C(N)=O)C(C)C [compound 4] (5FAM-EQTA[pY]ATIVFP-NH2) |  | 234 ± 17.6 nM |  | 95.1 ± 14.4 nM | 
CC[C@H](C)[C@H](NC(=O)[C@H](C)NC(=O)[C@H](C)NC(=O)[C@H](Cc1ccc(OP(=O)(O)O)cc1)NC(=O)[C@H](CCC(=O)O)NC(=O)[C@@H](NC(=O)[C@H](CCC(N)=O)NC(=O)[C@H](CCC(=O)O)NC(=O)c1ccc2c(c1)C(=O)OC21c2ccc(O)cc2Oc2cc(O)ccc21)[C@@H](C)O)C(=O)N[C@H](C(=O)N[C@@H](Cc1ccccc1)C(=O)N1CCC[C@H]1C(N)=O)C(C)C [compound 5] (5FAM-EQTE[pY]AAIVFP-NH2) |  | 1140 ± 585 nM |  | 126 ± 6.2 nM | 
CC(C)[C@H](NC(=O)[C@H](C)NC(=O)[C@@H](NC(=O)[C@H](C)NC(=O)[C@H](Cc1ccc(OP(=O)(O)O)cc1)NC(=O)[C@H](CCC(=O)O)NC(=O)[C@@H](NC(=O)[C@H](CCC(N)=O)NC(=O)[C@H](CCC(=O)O)NC(=O)c1ccc2c(c1)C(=O)OC21c2ccc(O)cc2Oc2cc(O)ccc21)[C@@H](C)O)[C@@H](C)O)C(=O)N[C@@H](Cc1ccccc1)C(=O)N1CCC[C@H]1C(N)=O [compound 6] (5FAM-EQTE[pY]ATAVFP-NH2) |  | > 10000 nM |  |  | no binding
CC[C@H](C)[C@H](NC(=O)[C@@H](NC(=O)[C@H](C)NC(=O)[C@H](Cc1ccc(OP(=O)(O)O)cc1)NC(=O)[C@H](CCC(=O)O)NC(=O)[C@@H](NC(=O)[C@H](CCC(N)=O)NC(=O)[C@H](CCC(=O)O)NC(=O)c1ccc2c(c1)C(=O)OC21c2ccc(O)cc2Oc2cc(O)ccc21)[C@@H](C)O)[C@@H](C)O)C(=O)N[C@@H](C)C(=O)N[C@@H](Cc1ccccc1)C(=O)N1CCC[C@H]1C(N)=O [compound 7] (5FAM-EQTE[pY]ATIAFP-NH2) |  | 1080 ± 84 nM |  | > 2000 nM | 
CC[C@H](C)[C@H](NC(=O)[C@@H](NC(=O)[C@H](C)NC(=O)[C@H](Cc1ccc(OP(=O)(O)O)cc1)NC(=O)[C@H](CCC(=O)O)NC(=O)[C@@H](NC(=O)[C@H](CCC(N)=O)NC(=O)[C@H](CCC(=O)O)NC(=O)c1ccc2c(c1)C(=O)OC21c2ccc(O)cc2Oc2cc(O)ccc21)[C@@H](C)O)[C@@H](C)O)C(=O)N[C@H](C(=O)N[C@@H](C)C(=O)N1CCC[C@H]1C(N)=O)C(C)C [compound 8] (5FAM-EQTE[pY]ATIVAP-NH2) |  | > 2000 nM |  | 185 ± 30.8 nM | 
CC[C@H](C)[C@H](NC(=O)[C@@H](NC(=O)[C@H](C)NC(=O)[C@H](Cc1ccc(OP(=O)(O)O)cc1)NC(=O)[C@H](CCC(=O)O)NC(=O)[C@@H](NC(=O)[C@H](CCC(N)=O)NC(=O)c1ccc2c(c1)C(=O)OC21c2ccc(O)cc2Oc2cc(O)ccc21)[C@@H](C)O)[C@@H](C)O)C(=O)N[C@@H](CCCCN)C(=O)N[C@H](C(=O)N1CCC[C@H]1C(N)=O)[C@@H](C)CC [compound 12] (5FAM-QTE[pY]ATIKIP-NH2) |  |  |  | 141 ± 6.2 nM | 
CC[C@H](C)[C@H](NC(=O)[C@@H](NC(=O)[C@H](C)NC(=O)[C@H](Cc1ccc(OP(=O)(O)O)cc1)NC(=O)[C@H](CCC(=O)O)NC(=O)[C@@H](NC(=O)[C@H](CCCCN)NC(=O)c1ccc2c(c1)C(=O)OC21c2ccc(O)cc2Oc2cc(O)ccc21)[C@@H](C)O)[C@@H](C)O)C(=O)N[C@@H](CCCCN)C(=O)N[C@@H](Cc1c[nH]cn1)C(=O)N1CCC[C@H]1C(N)=O [compound 19] (5FAM-KTE[pY]ATIKHP-NH2) |  |  |  | 105 ± 3.6 nM | 
CC[C@H](C)[C@H](NC(=O)[C@@H](NC(=O)[C@H](C)NC(=O)[C@H](Cc1ccc(OP(=O)(O)O)cc1)NC(=O)[C@H](CCC(=O)O)NC(=O)[C@H](CCC(=O)O)NC(=O)[C@H](CCCCN)NC(=O)c1ccc2c(c1)C(=O)OC21c2ccc(O)cc2Oc2cc(O)ccc21)[C@@H](C)O)C(=O)N[C@@H](CCCCN)C(=O)N[C@@H](Cc1c[nH]cn1)C(=O)N1CCC[C@H]1C(N)=O [compound 20] (5FAM-KEE[pY]ATIKHP-NH2) |  |  |  | > 500 nM | 
